Measured values as given in patent US20210069169A1, “PHARMACEUTICAL COMPOSITIONS” (priority 2007, published 2021).
Like-named read-outs stand apart in the source and are kept apart here.

Key:
postmenopausal women = settings: cited from earlier work
[1] = ERC-213: serum DHEA and eleven metabolites after daily intravaginal DHEA suppositories; type: in vivo, postmenopausal women; settings: highest dose (Table 2)
Description: The primary objective of that study was the evaluation of the systemic bioavailability of DHEA and its metabolites following daily intravaginal application of suppositories at four different DHEA concentrations. This study was a randomized, placebo-controlled and double-blind trial of 10-subjects per arm.

endometrium = experiment: ERC-210: endometrial biopsy; type: in vivo, postmenopausal women; settings: 3 months intravaginal; biopsies before and after 12 weeks
Protocol: Endometrial biopsy was performed at screening and at month 3 at end of study. All biopsies were examined by the same pathologist at the central laboratory (Dr. Robert Dubé, Department of cytology-pathology, Enfant-Jésus Hospital, Quebec City, Canada).

[2] = tested on: postmenopausal women suffering from vaginal atrophy; experiment: ERC-210: vaginal examination (secretions, color, epithelial integrity, thickness); type: in vivo; settings: 2, 4, 8 and 12 weeks
Description: At the same time intervals of 2, 4, 8 and 12 weeks, the gynecologist or physician in charge of the study at each site performed a vaginal exam to evaluate the degree of severity (none, mild, moderate or severe, analyzed using values of 0, 1, 2 and 3, respectively) for the main signs of vaginal atrophy, namely vaginal secretions, vaginal color, vaginal epithelial integrity and vaginal epithelial surface thickness. […] In fact. the beneficial effects observed by the gynecologist and or physician are almost superimposable to those self-reported by women on their most bothersome symptoms.
Vaginal examination was performed at screening and then at day 1 and at 2, 4, 8 and 12 weeks. Vaginal secretions, vaginal color, vaginal epithelial integrity and vaginal epithelial surface thickness were evaluated according to the following degrees of severity: none, mild, moderate or severe.

[3] = Example 2: serum steroids after oral DHEA capsules or percutaneous DHEA cream or gel
Description: Thirty-six healthy 60-70-year-old postmenopausal women participated in the study after IRB approval and having given their written informed consent. Body weight was within ±20% of normal body weight according to Metropolitan Life Tables.
This study was a randomized open-label trial of 12 subjects per arm. After written informed consent was obtained and women were found eligible, each subject was randomized to receive DHEA by cream, get or orally. Daily, before breakfast, for 14 days, subjects received, at the research clinic, either 4 g of 10% DHEA gel or 4 g of 10% DHEA cream applied on a total 30 cm×30 cm area of the thighs or two 50 mg capsules of DHEA orally before breakfast.
Blood sampling was performed at 08:00-09:00 h at screening and before application of DHEA, on the first day of dosing, as well as on days 2, 4, 7, 10 and 14. On the 1st and 14th days, blood samples were obtained at 0.5 h, 1 h, 1.5 h, 2 h, 3 h, 4 h, 5 h, 6 h, 7 h, 8 h, 12 h and 24 h following DHEA administration. […] Serum steroid analysis
DHEA, DHEA-S, androst-5-ene-3β,17β-diol (5-diol), testosterone, androstenedione (4-dione), 17β-estradiol (E2), estrone (E1), estrone sulfate (E1-S), androsterone glucuronide (ADT-G), and androstane-3,17β-diol glucuronide (3 α-diol-G) were measured by gas chromatography/mass spectrometry (DHEA, 5-diol, 4-dione, testosterone, E1 and E2) using electron impact or chemical ionization and by liquid chromatography/tandem mass spectrometry using turboionspray (DHEA-S, E1-S, ADT-G and 3α-diol-G) as described (Labrie, Bélanger et a., 2006; Labrie, Bélanger, et al, 2007b and Swanson et al. 2007).
On days 1 and 14, the area under the curve of the serum concentration of each steroid was measured between 0 h and 24 h (AUC0-24 h). The areas under the curves were calculated by a linear trapezoidal method (model-independent). The relative bioavailability of the DHEA gel, DHEA cream and DHEA capsules was based on the mean difference in the log-transformed AUC values, All calculations were performed with the SAS software (SAS Institute, Cary, N.C., USA).

[4] = cited from earlier work
[5] = oral 150 mg (Buster et al. 1992)
[6] = oral 300 mg (Buster et al. 1992)

## CCCCC(=O)O[C@H]1CC[C@H]2[C@@H]3CCc4cc(O)ccc4[C@H]3CC[C@]12C [estradiol valerate]
Postmenopausal women; 2 mg/day, 3 months
  Increase of Ki labeling in endometrium: 50%

## CCCCCCCCCCC(=O)O[C@H]1CC[C@H]2[C@@H]3CCC4=CC(=O)CC[C@]4(C)[C@H]3CC[C@]12C [testosterone undecanoate]
Postmenopausal women; 40 mg every second day
  Effect on the endometrium: no effect on the endometrium

## C[C@]12CC[C@H](O)CC1=CC[C@@H]1[C@@H]2CC[C@]2(C)C(=O)CC[C@@H]12 [DHEA, dehydroepiandrosterone]
[1]
  Average serum DHEA: 4.76 ± 0.42 ng/mL
endometrium
  Endometrial histology: no effect on endometrial histology
[2]
  Signs of vaginal atrophy at vaginal exam: highly statistically significant improvement of all four signs of vaginal atrophy
[3]; female, human, serum, po
  Higher amount of circulating DHEA-S at same DHEA exposure, oral vs percutaneous: 6.7-9.0 fold
  Transformation of DHEA into 4-dione, oral vs percutaneous: 2.70-3.76 times
[3]; percutaneous DHEA (DHEA change 406%)
  Efficacy of transformation into active androgens: 52%

## C[C@]12CC[C@@H]3c4ccc(O)cc4CC[C@H]3[C@@H]1CC[C@@H]2O [E2, 17β-estradiol]
Postmenopausal women; 25 μg intravaginally, 12 months
  % of cases with persisting dyspareunia: 12.4%
Postmenopausal women; 12 weeks intravaginal 25 μg E2 (Bachmann et al. 2008)
  % of patients with pH less than 5: 51%

## C[C@]12CC[C@H](O)CC1=CC[C@@H]1[C@@H]2CC[C@]2(C)C(=O)CC[C@@H]12 [micronized DHEA]
[4]; [5]
  Maximal serum DHEA-S: ~10 µg/mL
  Maximal serum testosterone: ~1.6 ng/mL
[4]; [6]
  Maximal serum DHEA: ~15 ng/mL
  Maximal serum testosterone: ~2.75 ng/mL
